Laboratory results from US20040092515A1, “Diaminoquinazoline esters for use as dihydrofolate reductase inhibitors” (priority 2001, published 2004).

| melting point [°C] | SMILES |
| --- | --- |
| 223 to 227 | COc1cc(C(=O)OCc2ccc3nc(N)nc(N)c3c2)cc(OC)c1OC |
| 195 to 197 | COc1ccc(OC)c(C(=O)OCc2ccc3nc(N)nc(N)c3c2)c1 |
